Calls of active or inactive are those of the source. The rule behind the calls is not given here.
Experiments:
Huh-7 = test: Antiproliferative activity against human Huh-7 cells assessed as inhibition of cell growth incubated for 96 hrs by MTT based ELISA; format: functional; conditions: Huh-7, 96 h
NCI-H1650 = test: Antiproliferative activity against human NCI-H1650 cells assessed as inhibition of cell growth incubated for 96 hrs by MTT based ELISA; format: functional; conditions: NCI-H1650, 96 h
[1] = Half life in ICR mouse at 10 mg/kg,po measured upto 24 hrs by LC-MS/MS analysis; format: ADME, organism-based; conditions: in vivo
[2] = MRT (0 to t) in ICR mouse at 10 mg/kg,po measured upto 24 hrs by LC-MS/MS analysis; format: ADME, organism-based; conditions: in vivo
[3] = MRT (0 to infinity) in ICR mouse at 10 mg/kg,po measured upto 24 hrs by LC-MS/MS analysis; format: ADME, organism-based; conditions: in vivo
[4] = AUC (0 to t) in ICR mouse at 10 mg/kg,po measured upto 24 hrs by LC-MS/MS analysis; format: ADME, organism-based; conditions: in vivo
[5] = AUC (0 to infinity) in ICR mouse at 10 mg/kg,po measured upto 24 hrs by LC-MS/MS analysis; format: ADME, organism-based; conditions: in vivo
[6] = target: T1, DNA topoisomerase 1 (Homo sapiens) (UniProt P11387); test: Inhibition of Topoisomerase I (unknown origin) using pBR322 DNA as substrate at 200 uM incubated for 15 mins by EtBr staining based agarose gel electrophoresis method relative to control
T1 sequence (whole entry): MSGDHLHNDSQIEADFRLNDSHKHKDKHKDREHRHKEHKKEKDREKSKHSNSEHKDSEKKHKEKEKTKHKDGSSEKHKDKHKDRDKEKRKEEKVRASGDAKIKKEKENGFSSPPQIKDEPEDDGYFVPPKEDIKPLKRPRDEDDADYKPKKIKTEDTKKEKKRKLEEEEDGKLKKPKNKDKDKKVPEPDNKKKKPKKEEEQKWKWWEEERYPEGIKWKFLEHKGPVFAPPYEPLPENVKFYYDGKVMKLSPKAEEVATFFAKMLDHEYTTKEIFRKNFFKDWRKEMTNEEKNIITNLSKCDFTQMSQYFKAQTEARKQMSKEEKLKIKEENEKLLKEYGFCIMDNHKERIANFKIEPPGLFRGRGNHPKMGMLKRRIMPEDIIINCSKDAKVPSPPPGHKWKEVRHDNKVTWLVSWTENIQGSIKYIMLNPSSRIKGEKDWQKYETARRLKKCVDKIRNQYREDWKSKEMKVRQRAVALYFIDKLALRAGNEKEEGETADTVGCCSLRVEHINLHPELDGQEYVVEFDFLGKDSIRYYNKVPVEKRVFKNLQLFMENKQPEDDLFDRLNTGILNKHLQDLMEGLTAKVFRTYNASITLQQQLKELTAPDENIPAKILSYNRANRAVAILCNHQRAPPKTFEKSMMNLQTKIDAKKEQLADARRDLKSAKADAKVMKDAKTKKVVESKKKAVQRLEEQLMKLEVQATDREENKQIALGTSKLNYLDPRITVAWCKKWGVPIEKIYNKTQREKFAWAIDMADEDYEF

[7] = target: T1, DNA topoisomerase 1 (Homo sapiens); test: Inhibition of Topoisomerase I (unknown origin) using pBR322 DNA as substrate at 50 uM incubated for 15 mins by EtBr staining based agarose gel electrophoresis method
[8] = target: T1, DNA topoisomerase 1 (Homo sapiens); test: Inhibition of Topoisomerase I (unknown origin) using pBR322 DNA as substrate at 10 uM incubated for 15 mins by EtBr staining based agarose gel electrophoresis method
NCI-H446 [9] = test: Induction of DNA damage in human NCI-H446 cells assessed as increase in DNA fragments at 8 uM incubated for 48 hrs by comet assay; format: functional, cell-based
NCI-H446 [10] = test: Induction of DNA damage in human NCI-H446 cells assessed as increase in intracellular ROS level at 4 to 8 uM incubated for 6 hrs by DCFHDA probe based fluorescence microscopic analysis; format: functional, cell-based; conditions: dose 4-8 µM
NCI-H446 [11] = test: Induction of cell cycle arrest in human NCI-H446 cells assessed as accumulation of cells at S phase at 1 to 2 uM incubated for 48 hrs by propidium iodide/RNase A staining based flow cytometry; format: functional; conditions: dose 1-2 µM
NCI-H446 [12] = test: Induction of cell cycle arrest in human NCI-H446 cells assessed as accumulation of cells at G2/M phase at 1 to 2 uM incubated for 48 hrs by propidium iodide/RNase A staining based flow cytometry; format: functional; conditions: dose 1-2 µM
NCI-H446 [13] = test: Induction of cell cycle arrest in human NCI-H446 cells assessed as accumulation of cells at G2/M phase at 2 uM incubated for 48 hrs by propidium iodide/RNase A staining based flow cytometry relative to control; format: functional
NCI-H446 [14] = test: Inhibition of colony formation in human NCI-H446 cells at 1 uM incubated for 24 hrs by crystal violet staining based analysis relative to control; format: functional
NCI-H446 [15] = test: Inhibition of cell migration in human NCI-H446 cells at 2 uM incubated for 48 hrs by phase-contrast microscopic analysis relative to control; format: functional
[16] = Toxicity in Kunming mouse assessed as change in serum AST level at 100 mg/kg,po administration for 2 weeks; format: organism-based; conditions: in vivo, 336 h
[17] = Toxicity in Kunming mouse assessed as change in serum blood urea nitrogen level at 100 mg/kg,po administration for 2 weeks; format: organism-based; conditions: in vivo, 336 h
[18] = Toxicity in Kunming mouse assessed as morphological change in lung at 100 mg/kg,po administration for 2 weeks; format: organism-based; conditions: in vivo, 336 h
[19] = Toxicity in Kunming mouse assessed as change in organ coefficient of heart at 100 mg/kg,po administration for 2 weeks; format: organism-based; conditions: in vivo, 336 h
[20] = target: DNA topoisomerase 2-alpha (Homo sapiens) (UniProt P11388); test: Inhibition of Topoisomerase 2 (unknown origin) using pBR322 DNA as substrate at 10 uM incubated for 15 mins by EtBr staining based agarose gel electrophoresis method
Chain of DNA topoisomerase 2-alpha (Homo sapiens) (P11388 whole entry): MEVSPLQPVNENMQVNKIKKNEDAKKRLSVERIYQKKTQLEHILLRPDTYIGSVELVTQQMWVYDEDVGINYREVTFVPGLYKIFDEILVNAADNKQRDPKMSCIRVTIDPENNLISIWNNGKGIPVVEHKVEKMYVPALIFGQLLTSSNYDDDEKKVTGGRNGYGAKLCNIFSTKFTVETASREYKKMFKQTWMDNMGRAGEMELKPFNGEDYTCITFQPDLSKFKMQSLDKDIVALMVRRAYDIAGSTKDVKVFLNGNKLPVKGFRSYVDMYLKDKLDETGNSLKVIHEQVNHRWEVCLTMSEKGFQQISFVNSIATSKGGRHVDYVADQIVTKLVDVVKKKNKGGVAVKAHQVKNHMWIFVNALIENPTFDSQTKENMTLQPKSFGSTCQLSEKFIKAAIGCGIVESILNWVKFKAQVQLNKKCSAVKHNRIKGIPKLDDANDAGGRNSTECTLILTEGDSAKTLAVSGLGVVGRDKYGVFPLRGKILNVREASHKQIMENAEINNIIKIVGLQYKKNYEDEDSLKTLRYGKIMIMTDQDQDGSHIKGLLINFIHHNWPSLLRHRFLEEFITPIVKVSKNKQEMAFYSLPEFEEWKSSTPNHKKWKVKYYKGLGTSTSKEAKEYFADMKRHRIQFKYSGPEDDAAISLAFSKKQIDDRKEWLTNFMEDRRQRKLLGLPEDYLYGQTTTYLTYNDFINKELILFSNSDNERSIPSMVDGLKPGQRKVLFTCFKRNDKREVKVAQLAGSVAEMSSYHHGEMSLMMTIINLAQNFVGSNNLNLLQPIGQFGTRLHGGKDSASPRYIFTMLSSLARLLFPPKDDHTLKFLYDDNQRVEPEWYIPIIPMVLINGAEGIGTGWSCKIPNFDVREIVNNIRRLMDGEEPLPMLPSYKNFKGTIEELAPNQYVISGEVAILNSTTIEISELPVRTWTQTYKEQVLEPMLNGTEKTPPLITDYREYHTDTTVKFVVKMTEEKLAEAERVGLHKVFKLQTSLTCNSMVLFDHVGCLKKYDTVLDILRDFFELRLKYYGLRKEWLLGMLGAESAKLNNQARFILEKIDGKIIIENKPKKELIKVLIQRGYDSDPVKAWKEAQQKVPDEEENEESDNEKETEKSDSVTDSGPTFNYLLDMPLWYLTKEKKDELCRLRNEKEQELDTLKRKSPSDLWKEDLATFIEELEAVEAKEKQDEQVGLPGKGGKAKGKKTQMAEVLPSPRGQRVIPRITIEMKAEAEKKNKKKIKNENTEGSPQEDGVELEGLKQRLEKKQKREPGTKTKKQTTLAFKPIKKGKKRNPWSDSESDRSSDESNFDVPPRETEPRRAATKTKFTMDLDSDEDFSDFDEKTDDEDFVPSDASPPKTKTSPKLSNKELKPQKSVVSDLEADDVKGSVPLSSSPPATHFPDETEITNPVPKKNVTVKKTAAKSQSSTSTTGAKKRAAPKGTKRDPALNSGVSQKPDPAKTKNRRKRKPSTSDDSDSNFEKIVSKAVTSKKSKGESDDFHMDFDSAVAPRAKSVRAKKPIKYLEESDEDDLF

NCI-H446 [21] = test: Antitumor activity against human NCI-H446 cells xenografted with BALB/c mouse assessed as tumor growth inhibition at 50 mg/kg,po administrated once daily for 21 days relative to control; format: functional; conditions: NCI-H446, 504 h, time 21 day, read-out: TGI
NCI-H446 [22] = test: Antitumor activity against human NCI-H446 cells xenografted with BALB/c mouse assessed as tumor growth inhibition by measuring T/C ratio at 50 mg/kg,po administrated once daily for 21 days; format: functional; conditions: time 21 day
HCT-116 [23] = test: Antitumor activity against human HCT-116 cells xenografted with BALB/c mouse assessed as tumor growth inhibition at 50 mg/kg,po administrated once daily for 21 days relative to control; format: functional; conditions: HCT-116, 504 h, time 21 day, read-out: TGI
HCT-116 [24] = test: Antitumor activity against human HCT-116 cells xenografted with BALB/c mouse assessed as tumor growth inhibition by measuring T/C ratio at 100 mg/kg,po administrated once daily for 21 days; format: functional; conditions: time 21 day
[25] = target: T1, DNA topoisomerase 1 (Homo sapiens); test: Inhibition of Topoisomerase I (unknown origin) using pBR322 DNA as substrate at 5 uM incubated for 15 mins by EtBr staining based agarose gel electrophoresis method
[26] = target: T1, DNA topoisomerase 1 (Homo sapiens); test: Inhibition of Topoisomerase I (unknown origin) using pBR322 DNA as substrate at 2 uM incubated for 15 mins by EtBr staining based agarose gel electrophoresis method

SMILES	IC50 (Huh-7) [nM]	IC50 (NCI-H1650) [nM]	half-life [1] [h]	MRT last at 24 h [2] [h]	MRT inf [3] [h]	AUC(0-t) at 24 h [4] [ng·h/mL]	AUC(0-inf) [5] [ng·h/mL]	inhibition [6] [%]	inhibition [7]	inhibition [8]	Activity (NCI-H446 [9])	Activity (NCI-H446 [10])	Activity (NCI-H446 [11])	Activity (NCI-H446 [12])	Activity (NCI-H446 [13]) [%]	inhibition at 1 µM (NCI-H446 [14]) [%]	inhibition at 2 µM (NCI-H446 [15]) [%]	Activity [16]	Activity [17]	Activity [18]	further results
COc1ccc2c(c1)c1ncc3ccccc3c1n2CCCC(=O)NO	2500	1020	1.15	1.35	1.72	244	267	> 95	Active	Active	Active	Active	Active	Active	60.3	> 90	73.2	Non-Toxic	Non-Toxic	Non-Toxic	Activity [19]: Non-Toxic; inhibition [20]: Active
CN(C)CCCn1c2cc3c(cc2c2ncc4ccccc4c21)OCO3	830	880	1.66	5	5	2040	2040	> 95	Active	Active	Active	Active	Active	Active	61.1	> 90	77.1	Non-Toxic	Non-Toxic	Non-Toxic	Activity [19]: Non-Toxic; inhibition in vivo at 50 mg/kg (NCI-H446 [21]): 49.2%; T/C (NCI-H446 [22]): 52.3%; inhibition in vivo at 50 mg/kg (HCT-116 [23]): 40.8%; T/C (HCT-116 [24]): 18%; inhibition [25]: Active; inhibition [26]: Active; inhibition [20]: Active
